Converted amounts (≈) assume the structure as drawn.
Assays:
[1] = system: Bacillus subtilis; assay: In vitro antibacterial activity against Bacillus subtilis ATCC 6633; type: functional
[2] = system: Klebsiella pneumoniae; assay: microbe, parasite or virus in culture; type: functional
Description: In vitro antibacterial activity against Klebsiella pneumoniae PCI-602

[3] = system: Proteus vulgaris; assay: In vitro antibacterial activity against Proteus vulgaris HX-19; type: functional
[4] = system: Escherichia coli; assay: In vitro antibacterial activity against Escherichia coli NIHJ JC-2; type: functional
[5] = system: Pseudomonas aeruginosa; assay: In vitro antibacterial activity against Pseudomonas aeruginosa IFO 3445; type: functional
[6] = system: Staphylococcus epidermidis; assay: microbe, parasite or virus in culture; type: functional
Description: In vitro antibacterial activity against Staphylococcus epidermidis IAM 1576

[7] = system: Salmonella paratyphi; assay: microbe, parasite or virus in culture; type: functional, Salmonella enterica subsp. enterica serovar Paratyphi A; conditions: Salmonella enterica
Description: In vitro antibacterial activity against Salmonella paratyphi 1015

[8] = system: Staphylococcus aureus; assay: In vitro antibacterial activity against Staphylococcus aureus FDA 209P JC-1; type: functional
[9] = Concentrations in serum after 30 minutes at 50 mg / kg oral administration; type: ADME, cell-free
[10] = Total serum concentrations at 0 to 4 hours interval was determined by 50 mg / kg oral administration; type: ADME, cell-free
[11] = Concentrations in serum after 240 minutes at 50 mg / kg oral administration; type: ADME
[12] = In vivo acute toxicity against Escherichia coli (KC-14) was determined for the compound administered intravenously; type: organism-based; conditions: mouse, iv
[13] = Concentrations in serum after 120 minutes at 50 mg / kg oral administration; type: ADME, cell-free
[14] = In vivo acute toxicity against Escherichia coli (KC-14) was determined for the compound administered orally; type: organism-based; conditions: mouse, po
[15] = system: Mus musculus; assay: In vivo antibacterial activity against Escherichia coli (KC-14) was determined for the compound administered perorally; Value ranges from 3.3-5.0; type: functional; conditions: po
[16] = Concentrations in serum after 60 minutes at 50 mg / kg oral administration; type: ADME, cell-free
[17] = system: Mus musculus; assay: In vivo antibacterial activity against Escherichia coli (KC-14) was determined for the compound administered perorally; type: functional; conditions: po
[18] = system: Mus musculus; assay: In vivo antibacterial activity against Escherichia coli (KC-14) was determined for the compound administered perorally; Value ranges from 4.8-9.4; type: functional; conditions: po
[19] = system: Mus musculus; assay: In vivo antibacterial activity against Escherichia coli (KC-14) was determined for the compound administered perorally; Value ranges from 2.4-4.7; type: functional; conditions: po

Row | SMILES | MIC [1] [mg/L] | MIC [2] [mg/L] | MIC [3] [mg/L] | MIC [4] [mg/L] | MIC [5] [mg/L] | MIC [6] [mg/L] | MIC [7] [mg/L] | MIC [8] [mg/L] | concentration at 0.5 h [9] [µg/mL] | Concentration in serum [10] [µg/mL] | concentration at 4 h [11] [µg/mL] | LD50 [12] [mg/kg] | concentration at 2 h [13] [µg/mL] | LD50 [14] [mg/kg] | ED50 [15] [mg/kg] | concentration at 1 h [16] [µg/mL] | ED50 [17] [mg/kg] | ED50 [18] [mg/kg] | ED50 [19] [mg/kg]
1 | CCn1cc(C(=O)O)c(=O)c2cc(F)c(-n3cnc(/C=N/O)c3)c(F)c21 | 0.78 (≈ 2.15 µM) | 0.39 (≈ 1.08 µM) | 0.78 (≈ 2.15 µM) | 6.25 (≈ 17.3 µM) | 25 (≈ 69 µM) | 25 (≈ 69 µM) | 0.39 (≈ 1.08 µM) | 3.13 (≈ 8.64 µM) |  |  |  |  |  |  |  |  |  |  | 
2 | CCn1cc(C(=O)O)c(=O)c2cc(F)c(-n3ccnc3)c(F)c21 |  |  |  |  |  |  |  |  | 44.8 | 64.9 | 1.7 | 773 | 7.6 | 4000 | 4 | 39.3 |  |  | 
3 | CCn1cc(C(=O)O)c(=O)c2cc(F)c(-n3cnc(C(=O)N(C)C)c3)c(F)c21 | 6.25 (≈ 16 µM) | 1.56 (≈ 4 µM) | 3.13 (≈ 8.02 µM) | 25 (≈ 64 µM) | 25 (≈ 64 µM) | 25 (≈ 64 µM) | 3.13 (≈ 8.02 µM) | 12.5 (≈ 32 µM) |  |  |  |  |  |  |  |  |  |  | 
4 | CCn1cc(C(=O)O)c(=O)c2cc(F)c(-n3cccc3)cc21 [IRLOXACIN] | 0.05 (≈ 0.167 µM) | 0.2 (≈ 0.666 µM) | 0.1 (≈ 0.333 µM) | 3.13 (≈ 10.4 µM) | 12.5 (≈ 41.6 µM) | 1.56 (≈ 5.19 µM) | 0.1 (≈ 0.333 µM) | 0.39 (≈ 1.3 µM) | 5.53 | 6.8 | 0.55 |  | 0.84 |  |  | 2.2 | 50 |  | 
5 | CCn1cc(C(=O)O)c(=O)c2cc(F)c(N3CCNCC3)cc21 [NORFLOXACIN] |  |  |  |  |  |  |  |  | 1.05 | 2 | 0.36 | 327 | 0.4 | 4000 |  | 0.69 |  | 6.7 | 
6 | CCn1cc(C(=O)O)c(=O)c2cc(F)c(-n3ccnc3)c(SC)c21 | 0.39 (≈ 1.12 µM) | 0.39 (≈ 1.12 µM) | 0.39 (≈ 1.12 µM) | 6.25 (≈ 18 µM) | 25 (≈ 72 µM) | 12.5 (≈ 36 µM) | 0.39 (≈ 1.12 µM) | 3.13 (≈ 9.01 µM) |  |  |  |  |  |  |  |  |  |  | 
7 | CCn1cc(C(=O)O)c(=O)c2cc(F)c(-n3cnc4c3CCCC4)c(F)c21 | 0.39 (≈ 1.04 µM) | 1.56 (≈ 4.18 µM) | 3.13 (≈ 8.38 µM) | 12.5 (≈ 33.5 µM) | 25 (≈ 67 µM) | 6.25 (≈ 16.7 µM) | 6.25 (≈ 16.7 µM) | 1.56 (≈ 4.18 µM) |  |  |  |  |  |  |  |  |  |  | 
8 | CCn1cc(C(=O)O)c(=O)c2cc(F)c(-n3ccnc3)c(OC)c21 | 0.1 (≈ 0.302 µM) | 0.1 (≈ 0.302 µM) | 0.1 (≈ 0.302 µM) | 1.56 (≈ 4.71 µM) | 25 (≈ 75.5 µM) | 1.56 (≈ 4.71 µM) | 0.1 (≈ 0.302 µM) | 0.39 (≈ 1.18 µM) |  |  |  |  |  |  |  |  |  |  | 
9 | CCn1cc(C(=O)O)c(=O)c2cc(F)c(-n3cnc(C)c3)c(F)c21 |  |  |  |  |  |  |  |  | 49.2 | 67.9 | 6.3 | 593 | 10 | 4000 |  | 29.4 |  |  | 3.3
10 | CCn1cc(C(=O)O)c(=O)c2cc(F)c(-n3ccnc3)cc21 | 0.78 (≈ 2.59 µM) | 0.2 (≈ 0.664 µM) | 0.2 (≈ 0.664 µM) | 1.56 (≈ 5.18 µM) | 12.5 (≈ 41.5 µM) | 25 (≈ 83 µM) | 0.1 (≈ 0.332 µM) | 6.25 (≈ 20.7 µM) | 4.2 | 5.5 |  |  | 1.1 |  |  | 2.3 | 50 |  | 
11 | CCn1cc(C(=O)O)c(=O)c2cc(F)c(-n3cnc(CN(C)C)c3)c(F)c21 | 6.25 (≈ 16.6 µM) | 3.13 (≈ 8.32 µM) | 6.25 (≈ 16.6 µM) | 25 (≈ 66.4 µM) | 25 (≈ 66.4 µM) | 25 (≈ 66.4 µM) | 6.25 (≈ 16.6 µM) | 6.25 (≈ 16.6 µM) |  |  |  |  |  |  |  |  |  |  | 

From ChEMBL document CHEMBL1123556, “Synthesis of antimicrobial agents. 1. Syntheses and antibacterial activities of 7-(azole substituted)quinolones” (J Med Chem, 1987)
